Data published in PubChem BioAssay (NCI).
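Cultured in 96-well plates, cells were exposed to test compound for 48 hours across five concentrations. TGI denotes the concentration required for complete inhibition of growth.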

Columns and labels:
Assay in all cases: NCI tumour cell line growth inhibition, 48 h
A549 NSCLC = tested on: A549 NSCLC
HT29 colon = tested on: HT29 colon
SK-MEL-5 melanoma = tested on: SK-MEL-5 melanoma
SF-268 CNS = tested on: SF-268 CNS
HCC-2998 colon = tested on: HCC-2998 colon
UACC-62 melanoma = tested on: UACC-62 melanoma
SN12C renal = tested on: SN12C renal
OVCAR-4 ovarian = tested on: OVCAR-4 ovarian
NCI-H226 lung = tested on: NCI-H226 lung
CCRF-CEM leukemia = tested on: CCRF-CEM leukemia
DU-145 prostate = tested on: DU-145 prostate
IGROV1 ovarian = tested on: IGROV1 ovarian
MALME-3M melanoma = tested on: MALME-3M melanoma
HCT-116 colon = tested on: HCT-116 colon
LOX IMVI melanoma = tested on: LOX IMVI melanoma
HS 578T breast = tested on: HS 578T breast
RPMI-8226 leukemia = tested on: RPMI-8226 leukemia
HCT-15 colon = tested on: HCT-15 colon
786-0 renal = tested on: 786-0 renal
SNB-75 CNS = tested on: SNB-75 CNS
SK-MEL-28 melanoma = tested on: SK-MEL-28 melanoma
SNB-19 CNS = tested on: SNB-19 CNS
T-47D breast = tested on: T-47D breast
SF-295 CNS = tested on: SF-295 CNS
HL-60(TB) leukemia = tested on: HL-60(TB) leukemia
MCF7 breast = tested on: MCF7 breast
A498 renal = tested on: A498 renal
ACHN renal = tested on: ACHN renal
PC-3 prostate = tested on: PC-3 prostate
MDA-N = tested on: MDA-N
UO-31 renal = tested on: UO-31 renal
OVCAR-8 ovarian = tested on: OVCAR-8 ovarian
TK-10 renal = tested on: TK-10 renal
SK-MEL-2 melanoma = tested on: SK-MEL-2 melanoma
UACC-257 melanoma = tested on: UACC-257 melanoma
NCI-H460 lung = tested on: NCI-H460 lung
RXF 393 renal = tested on: RXF 393 renal
CAKI-1 renal = tested on: CAKI-1 renal
COLO 205 colon = tested on: COLO 205 colon
NCI/ADR-RES ovarian = tested on: NCI/ADR-RES ovarian
MDA-MB-435 = tested on: MDA-MB-435
U251 CNS = tested on: U251 CNS
EKVX NSCLC = tested on: EKVX NSCLC
OVCAR-5 ovarian = tested on: OVCAR-5 ovarian
HOP-92 NSCLC = tested on: HOP-92 NSCLC
NCI-H522 lung = tested on: NCI-H522 lung
NCI-H23 lung = tested on: NCI-H23 lung
OVCAR-3 ovarian = tested on: OVCAR-3 ovarian
BT-549 breast = tested on: BT-549 breast
KM12 colon = tested on: KM12 colon
SW-620 colon = tested on: SW-620 colon
K-562 leukemia = tested on: K-562 leukemia
HOP-62 NSCLC = tested on: HOP-62 NSCLC
MDA-MB-231 breast = tested on: MDA-MB-231 breast
M14 melanoma = tested on: M14 melanoma
SK-OV-3 ovarian = tested on: SK-OV-3 ovarian
MOLT-4 leukemia = tested on: MOLT-4 leukemia
SF-539 CNS = tested on: SF-539 CNS

SMILES: OC(c1ccc(F)cc1)(c1ccc(F)cc1)C1CC1
- TGI (A549 NSCLC): 94.2 µM
- TGI (HT29 colon): 65.9 µM
- TGI (SK-MEL-5 melanoma): 30.2 µM
- TGI (SF-268 CNS): > 100 µM
- TGI (HCC-2998 colon): 45.7 µM
- TGI (UACC-62 melanoma): > 100 µM
- TGI (SN12C renal): 53.6 µM
- TGI (OVCAR-4 ovarian): 79.2 µM
- TGI (NCI-H226 lung): 88.1 µM
- TGI (CCRF-CEM leukemia): 95.8 µM
- TGI (DU-145 prostate): > 100 µM
- TGI (IGROV1 ovarian): > 100 µM
- TGI (MALME-3M melanoma): 65.2 µM
- TGI (HCT-116 colon): > 100 µM
- TGI (LOX IMVI melanoma): 48.2 µM
- TGI (HS 578T breast): 82.6 µM
- TGI (RPMI-8226 leukemia): 59.2 µM
- TGI (HCT-15 colon): 68.2 µM
- TGI (786-0 renal): > 100 µM
- TGI (SNB-75 CNS): > 100 µM
- TGI (SK-MEL-28 melanoma): > 100 µM
- TGI (SNB-19 CNS): > 100 µM
- TGI (T-47D breast): > 100 µM
- TGI (SF-295 CNS): > 100 µM
- TGI (HL-60(TB) leukemia): 47.3 µM
- TGI (MCF7 breast): > 100 µM
- TGI (A498 renal): 77.8 µM
- TGI (ACHN renal): > 100 µM
- TGI (PC-3 prostate): 53.7 µM
- TGI (MDA-N): 44.1 µM
- TGI (UO-31 renal): 59.5 µM
- TGI (OVCAR-8 ovarian): > 100 µM
- TGI (TK-10 renal): > 100 µM
- TGI (SK-MEL-2 melanoma): 32.5 µM
- TGI (UACC-257 melanoma): 73 µM
- TGI (NCI-H460 lung): > 100 µM
- TGI (RXF 393 renal): 67.7 µM
- TGI (CAKI-1 renal): 98.7 µM
- TGI (COLO 205 colon): 29.7 µM
- TGI (NCI/ADR-RES ovarian): 58 µM
- TGI (MDA-MB-435): 74.2 µM
- TGI (U251 CNS): 59.6 µM
- TGI (EKVX NSCLC): 96.2 µM
- TGI (OVCAR-5 ovarian): > 100 µM
- TGI (HOP-92 NSCLC): 97 µM
- TGI (NCI-H522 lung): 52.9 µM
- TGI (NCI-H23 lung): 35.9 µM
- TGI (OVCAR-3 ovarian): > 100 µM
- TGI (BT-549 breast): 37.9 µM
- TGI (KM12 colon): > 100 µM
- TGI (SW-620 colon): > 100 µM
- TGI (K-562 leukemia): > 100 µM
- TGI (HOP-62 NSCLC): > 100 µM
- TGI (MDA-MB-231 breast): > 100 µM
- TGI (M14 melanoma): 69.2 µM
- TGI (SK-OV-3 ovarian): > 100 µM
- TGI (MOLT-4 leukemia): 49.2 µM
- TGI (SF-539 CNS): > 100 µM
